Here are results for two compounds from PMC10511816 (The Journal of Biological Chemistry, 2023).

By Ki is commonly meant a dissociation constant, usually derived from enzyme kinetics or from competition with a known ligand.

The target of one experiment is XOR. Particulars: read-out: Ki for the xanthine to uric acid reaction; steady-state kinetic analysis; cited from earlier work.
The target of another experiment is XDH (Bos taurus, UniProt P80457). Particulars: 2 μM hypoxanthine, 500 μM β-NAD+, 6 nM XDH, pH 8.5, 25 °C. Here is the method: The rate of NAD^+ conversion to NADH was measured at A340 nm.
Sequence of XDH (P80457 whole entry): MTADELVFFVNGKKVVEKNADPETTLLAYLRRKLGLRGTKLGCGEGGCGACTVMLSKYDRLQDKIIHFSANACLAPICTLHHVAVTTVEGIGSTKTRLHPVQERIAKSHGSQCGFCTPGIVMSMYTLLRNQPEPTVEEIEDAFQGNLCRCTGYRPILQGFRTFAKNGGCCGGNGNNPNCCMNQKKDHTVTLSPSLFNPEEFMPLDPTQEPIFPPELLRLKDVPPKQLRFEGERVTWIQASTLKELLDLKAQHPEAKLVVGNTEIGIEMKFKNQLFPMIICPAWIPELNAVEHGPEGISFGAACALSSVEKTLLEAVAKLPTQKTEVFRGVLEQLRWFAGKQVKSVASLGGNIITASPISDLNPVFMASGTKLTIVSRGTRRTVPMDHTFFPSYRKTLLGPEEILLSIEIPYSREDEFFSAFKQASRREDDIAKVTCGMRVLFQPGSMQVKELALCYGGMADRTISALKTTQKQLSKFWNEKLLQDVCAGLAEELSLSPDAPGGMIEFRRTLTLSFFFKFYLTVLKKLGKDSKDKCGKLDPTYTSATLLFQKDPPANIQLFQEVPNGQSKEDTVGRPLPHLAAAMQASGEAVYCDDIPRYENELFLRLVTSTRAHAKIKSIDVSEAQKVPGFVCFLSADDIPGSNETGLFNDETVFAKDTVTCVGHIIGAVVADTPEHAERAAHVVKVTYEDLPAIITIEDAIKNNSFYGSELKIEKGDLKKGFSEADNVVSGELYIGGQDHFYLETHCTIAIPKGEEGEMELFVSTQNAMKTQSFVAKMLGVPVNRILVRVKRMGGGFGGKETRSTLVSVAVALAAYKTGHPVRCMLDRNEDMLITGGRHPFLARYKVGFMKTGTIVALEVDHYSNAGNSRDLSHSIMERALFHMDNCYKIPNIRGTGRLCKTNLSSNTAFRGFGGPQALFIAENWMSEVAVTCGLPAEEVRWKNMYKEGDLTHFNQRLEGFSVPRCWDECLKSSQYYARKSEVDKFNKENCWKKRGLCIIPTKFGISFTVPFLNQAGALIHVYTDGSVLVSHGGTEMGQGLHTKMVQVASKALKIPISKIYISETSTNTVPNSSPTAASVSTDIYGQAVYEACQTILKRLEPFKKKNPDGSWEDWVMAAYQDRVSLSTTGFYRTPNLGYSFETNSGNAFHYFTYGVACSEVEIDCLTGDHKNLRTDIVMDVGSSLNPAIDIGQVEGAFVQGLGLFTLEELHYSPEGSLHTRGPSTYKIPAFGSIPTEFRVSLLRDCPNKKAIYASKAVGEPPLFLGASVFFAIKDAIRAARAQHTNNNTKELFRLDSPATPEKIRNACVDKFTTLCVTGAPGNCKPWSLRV
Bovine milk was obtained from the animal farm of the Nippon Veterinary and Life Science University. […] The dehydrogenase form of the enzyme (XDH) was obtained by reacting XO immediately upon purification with 5 mM DTT at pH 8.5, 25 °C for 1 h. XO and XDH assays were carried out at 25 °C under aerobic conditions. […] A total of 500 μM β-NAD^+ was added to the same reaction solution for XDH activity. Physiological conditions such as pH 7.4 (0.1 M potassium phosphate buffer (KPB), 0.2 mM EDTA) and the addition of 50 μM β-NADH were also used. The activity was measured by following 295 nm and 340 nm on a UV-1800 or UV1900i spectrophotometer. […] In addition, the enzyme reaction solution was quenched with perchloric acid and neutralized with K2CO3, with products analyzed using HPLC as described below. Spectrophotometric data were analyzed using UV-Probe software Ver. 2.70 or LabSolutions UV-Vis Ver. […] Kinetic parameters were determined from nonlinear curve fits of raw data using GraphPad Prism 9 software.

The target in experiment [1] is T1, Purine nucleoside phosphorylase (PNP) (Homo sapiens, UniProt P00491).
T1 construct: purchased Sigma-Aldrich; host or cells: E. coli
T1 sequence (P00491 1-289): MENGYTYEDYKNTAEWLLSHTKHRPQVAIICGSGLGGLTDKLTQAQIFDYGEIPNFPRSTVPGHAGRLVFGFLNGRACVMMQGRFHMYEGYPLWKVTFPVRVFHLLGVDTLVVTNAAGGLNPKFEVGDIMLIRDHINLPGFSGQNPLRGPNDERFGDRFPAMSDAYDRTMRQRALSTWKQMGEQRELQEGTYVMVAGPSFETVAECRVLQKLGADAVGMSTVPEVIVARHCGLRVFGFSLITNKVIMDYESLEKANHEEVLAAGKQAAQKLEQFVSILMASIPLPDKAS
Kind of experiment: PNP activity assay (inosine degradation, HPLC). Particulars: human recombinant PNP. The format is biochemical. The text has this: Plasma allopurinol never reaches that concentration, but oxypurinol concentrations could ([34], [35]). Although oxypurinol has been reported to have a stronger inhibitory effect than allopurinol ([32], [36]), the results were obtained prior to several reports on the cooperativity of PNP ([37]). […] This nonideal behavior may be a manifestation of the well-established allosteric properties of PNP ([37]).
Purine nucleoside phosphorylase (human, recombinantly expressed in E. coli) was purchased from Sigma-Aldrich. The reaction solution for inosine hydrolysis consisted of 50 mM KPB (pH 7.4), with varying concentrations of inosine and oxypurinol.
A295 indicates the concentration of uric acid yielded by XOR. […] A295 indicates the concentration of uric acid yielded by XOR. Figure S2. The XOR inhibition mode of oxypurinol.A–G, Lineweaver-Burk plots were generated to visualize data and estimated the inhibition patterns. Data are representative of least two independent experiments. […] The same as in A except that 1.23 nM XDH was used instead of XO and 500 μM NAD^+ was added to the reaction solution. […] The same as in D except that hypoxanthine was used instead of xanthine. […] The same as in D except that febuxostat was used instead of oxypurinol. […] The same as in F except that hypoxanthine was used instead of xanthine. Figure S3. […] Hypoxanthine, xanthine, and uric acid were measured by HPLC.

For `Oc1ncnc2[nH]ncc12` [Allopurinol], the Ki on XOR was 100 nM. For the same compound, the “concentration above which NADH formation is immediately inhibited” value at XDH is recorded as “Above 5 μM”.
Take `O=c1[nH]c(=O)c2c[nH]nc2[nH]1` [Oxypurinol]: the “inhibition of PNP” value in experiment [1] is given as “weakly but allosterically inhibits PNP”. In experiment [1] (50 mM KPB pH 7.4, 0-1000 μM oxypurinol), the “mode of inhibition for inosine” value is “competitive”.
